According to patent publication US5924973A, “Method of treating a disease process in a luminal structure” (The Trustees of Columbia University in the City of New York, priority 1996, dated 1999):
Several values for one entry are separate records, joined by “and”; a condition that tells them apart may be missing. Equal entries are not always repeated.

Legend:
[1] = Dual label excretion studies of 188Re-MAG3 and 99mTc-MAG3 in rats (urine, feces); type: in vivo; set-up: Excretion kinetics of ^188 Re-MAG3 in feces of rats, 2 h / Excretion kinetics of ^188 Re-MAG3 in feces of rats, 8 h / Excretion kinetics of ^188 Re-MAG3 in feces of rats, 10 h / Excretion kinetics of ^188 Re-MAG3 in feces of rats, 12 h / Excretion kinetics of ^188 Re-MAG3 in feces of rats, 24 h / Excretion kinetics of ^188 Re-MAG3 in feces of rats, 48 h / Excretion kinetics of ^188 Re-MAG3 in feces of rats, Total: unit not given here
Text: Comparison of the Excretion of ^188 Re-MAG3 with ^99 mTc-MAG3 in rats
Dual Label Excretion Studies of ^188 Re-MAG3 and ^99m Tc-MAG3 in Rats

[2] = Biodistribution of 99mTc-MAG3 and 188Re-MAG3 in a dual label study, tail vein injection; type: in vivo, rats; conditions: ± standard deviation
Text: Biodistribution Data for ^99m Tc-MAG3 and ^188 Re-MAG3 in a dual label study

[3] = 188Re-MAG3 stability study at high radioactivity levels (HPLC, TLC); type: physicochemical
Description: Stability-^188 Re-MAG3 Stability Study at High Radioactivity Levels
^188 Re-MAG3 was prepared using the protocol as described above however using 1 mL generator eluate to dissolve the contents of a commercial MAG3 Kit and addition of 1 mL of SnCl2 /citrate solution. The starting activity in 1 ml generator eluate was 1220 Mbq (33 mCi). Thus the concentration of citrate and stannous ions were maintained, however the concentration of the Kit contents in especially the Benzoyl-MAG3 precursor is reduced to half of the original protocol.
The stability was tested using HPLC-chromatography and also TLC as additional control.

[4] = Stability of 188Re-MAG3 in presence of Hypaque contrast agent; type: physicochemical
Description: Stability of ^188 Re-MAG3 in Presence of Hypaque Contrast Agent
^188 Re-MAG3 was prepared as in the upper case starting with an activity of 851 Mbq (23 mCi). After the End of Synthesis, QC via HPLC and TLC, 2 mL of a 50% Triazoate solution was added. Triazoate is known as Hypaque and is the 3,5-Bis(acetylamino)-2,4,6-triiodobenzoic acid sodium salt.

[5] = HPLC and ITLC evaluation of 188Re-MAG3 up to five hours after preparation; type: physicochemical; conditions: periods up to five hours after preparation
[6] = MIRD calculation of individual organ dose of released 188Re-MAG3; conditions: based on animal data and human 99mTc-MAG3 distribution
Text: As alluded to previously, the probability of balloon rupture at nominal balloon inflation pressures are substantially less than one percent. Animal experiments and calculations of the individual organ dose received by a ^188 Re-MAG3 release have been done. Because the isotope is in solution, there would be no significant local arterial deposition. In fact, attempts to intentionally deposit soluble compounds in vessel walls for their pharmacological properties have been notoriously poor. The distribution and elimination of simultaneously injected ^99 mTc-MAG3 and ^188 Re-MAG3 in rats are identical. Based upon these findings Dr. Michael Stabin of the Oak Ridge Institute for Science and Education (ORISE) has calculated, based on the MIRD formalism, the individual organ dose of released ^188 Re-MAG3. The only organ receiving a dose of greater than 5 cGy would be the urinary bladder wall. This assumes spontaneous urination every 4-6 hours. […] Thus, release of the isotope upon balloon rupture would necessitate placing a bladder catheter until the urinary counts excreted return to background. Based on animal data, and on human ^99m Tc-MAG3 distribution this should occur in less than 12 hours.

[7] = 20 min after mixing with Hypaque
[8] = 80 min after mixing with Hypaque
[9] = 140 min after mixing with Hypaque
[10] = EOS - before addition of Hypaque

For `O=C(O)C[N]1C(=O)C[N]2C(=O)C[N]3C(=O)C[S][188Re-]132=[O]` [^188 Re-MAG3], the “Excretion kinetics of ^188 Re-MAG3 in feces of rats, 2 h” value ([1]; feces, 2 h, individual rats #1-4, 120 min) was 0.03 and 1.50 and 0.01, the “Excretion kinetics of ^188 Re-MAG3 in feces of rats, 4 h” value ([1]; feces, 4 h, individual rats #1-4) was 0 and the “Excretion kinetics of ^188 Re-MAG3 in feces of rats, 6 h” value ([1]; feces, 6 h, individual rats #1-4) was 0. The “Excretion kinetics of ^188 Re-MAG3 in feces of rats, 8 h” value ([1]; feces, 8 h, individual rats #1-4, 480 min) was 0.02 and 0 and 1.30 and 0.04, the “Excretion kinetics of ^188 Re-MAG3 in feces of rats, 10 h” value ([1]; feces, 10 h, individual rats #1-4, 600 min) was 0.41 and 3.79 and 1.79 and 1.67 and the “Excretion kinetics of ^188 Re-MAG3 in feces of rats, 12 h” value ([1]; feces, 12 h, individual rats #1-4, 720 min) was 1.17 and 1.09 and 0 and 2.24. For the same compound, the “Excretion kinetics of ^188 Re-MAG3 in feces of rats, 24 h” value ([1]; feces, 24 h, individual rats #1-4, 1440 min) was 5.86 and 6.46 and 4.47 and 3.46, the “Excretion kinetics of ^188 Re-MAG3 in feces of rats, 48 h” value ([1]; feces, 48 h, individual rats #1-4, 2880 min) was 0.85 and 2.26 and 0.52 and 0.70 and the “Excretion kinetics of ^188 Re-MAG3 in feces of rats, Total” value ([1]; feces, Total, individual rats #1-4) was 8.34 and 15.1 and 8.08 and 8.12. For the same compound, the “Excretion kinetics of ^188 Re-MAG3 in feces of rats, Total, mean” value ([1]; feces, Total, mean of 4 rats, S.D. on separate line) was 9.91, the “distribution and elimination, 99mTc-MAG3 versus 188Re-MAG3” value ([1]; simultaneously injected in rats) was “identical” and the “Excretion kinetics of ^188 Re-MAG3 in urine of rats, 6 h, mean” value ([1]; urine, 6 h, mean of 4 rats, S.D. on separate line) was 0.97. The “Excretion kinetics of ^188 Re-MAG3 in urine of rats, 8 h, mean” value ([1]; urine, 8 h, mean of 4 rats, S.D. on separate line) was 2.75, the “Excretion kinetics of ^188 Re-MAG3 in urine of rats, 10 h, mean” value ([1]; urine, 10 h, mean of 4 rats, S.D. on separate line) was 1.15 and the “Excretion kinetics of ^188 Re-MAG3 in urine of rats, 12 h, mean” value ([1]; urine, 12 h, mean of 4 rats, S.D. on separate line) was 0.83. For the same compound, the “Excretion kinetics of ^188 Re-MAG3 in urine of rats, 24 h, mean” value ([1]; urine, 24 h, mean of 4 rats, S.D. on separate line) was 5.07, the “Excretion kinetics of ^188 Re-MAG3 in urine of rats, 48 h, mean” value ([1]; urine, 48 h, mean of 4 rats, S.D. on separate line) was 1.76 and the “Excretion kinetics of ^188 Re-MAG3 in urine of rats, Total, mean” value ([1]; urine, Total, mean of 4 rats, S.D. on separate line) was 81.97. The “Biodistribution of ^188 Re-MAG3, blood” value ([2]; 2 h) was 0.07 ± 0.01 % inj. dose/g tissue, the “Biodistribution of ^188 Re-MAG3, blood” value ([2]; 6 h) was 0.08 ± 0.02 % inj. dose/g tissue and the “Biodistribution of ^188 Re-MAG3, blood” value ([2]; 24 h) was 0.05 ± 0.02 % inj. dose/g tissue. The “Biodistribution of ^188 Re-MAG3, bone” value ([2]; 2 h) was 0.09 ± 0.11 % inj. dose/g tissue, the “Biodistribution of ^188 Re-MAG3, bone” value ([2]; 6 h) was 0.01 ± 0.01 % inj. dose/g tissue and the “Biodistribution of ^188 Re-MAG3, bone” value ([2]; 24 h) was 0.04 ± 0.05 % inj. dose/g tissue. For the same compound, the “Biodistribution of ^188 Re-MAG3, contents of l.i.” value (“Biodistribution … of l.i.” below) ([2]; 2 h) was 0.87 ± 0.32 % inj. dose/g tissue, the “Biodistribution … of l.i.” value ([2]; 6 h) was 1.42 ± 0.33 % inj. dose/g tissue and the “Biodistribution … of l.i.” value ([2]; 24 h) was 0.05 ± 0.01 % inj. dose/g tissue. For the same compound, the “Biodistribution of ^188 Re-MAG3, contents of s.i.” value (“Biodistribution … of s.i.” for short) ([2]; 2 h) was 1.97 ± 2.58 % inj. dose/g tissue, the “Biodistribution … of s.i.” value ([2]; 6 h) was 0.06 ± 0.05 % inj. dose/g tissue and the “Biodistribution … of s.i.” value ([2]; 24 h) was 0.02 ± 0.01 % inj. dose/g tissue. The “Biodistribution of ^188 Re-MAG3, heart” value ([2]; 2 h) was 0.02 ± 0.03 % inj. dose/g tissue, the “Biodistribution of ^188 Re-MAG3, heart” value ([2]; 6 h) was 0.00 ± 0.00 % inj. dose/g tissue and the “Biodistribution of ^188 Re-MAG3, heart” value ([2]; 24 h) was 0.01 ± 0.00 % inj. dose/g tissue. For the same compound, the “Biodistribution of ^188 Re-MAG3, kidneys” value ([2]; 2 h) was 0.12 ± 0.03 % inj. dose/g tissue, the “Biodistribution of ^188 Re-MAG3, kidneys” value ([2]; 6 h) was 0.11 ± 0.02 % inj. dose/g tissue and the “Biodistribution of ^188 Re-MAG3, kidneys” value ([2]; 24 h) was 0.07 ± 0.01 % inj. dose/g tissue. For the same compound, the “Biodistribution of ^188 Re-MAG3, l. intestine” value (from here on “Biodistribution … l. intestine”) ([2]; 2 h) was 0.06 ± 0.02 % inj. dose/g tissue, the “Biodistribution … l. intestine” value ([2]; 6 h) was 0.13 ± 0.03 % inj. dose/g tissue and the “Biodistribution … l. intestine” value ([2]; 24 h) was 0.02 ± 0.00 % inj. dose/g tissue. The “Biodistribution of ^188 Re-MAG3, liver” value ([2]; 2 h) was 0.03 ± 0.01 % inj. dose/g tissue, the “Biodistribution of ^188 Re-MAG3, liver” value ([2]; 6 h) was 0.03 ± 0.00 % inj. dose/g tissue and the “Biodistribution of ^188 Re-MAG3, liver” value ([2]; 24 h) was 0.02 ± 0.00 % inj. dose/g tissue. The “Biodistribution of ^188 Re-MAG3, lung” value ([2]; 2 h) was 0.05 ± 0.02 % inj. dose/g tissue, the “Biodistribution of ^188 Re-MAG3, lung” value ([2]; 6 h) was 0.02 ± 0.00 % inj. dose/g tissue and the “Biodistribution of ^188 Re-MAG3, lung” value ([2]; 24 h) was 0.01 ± 0.01 % inj. dose/g tissue. For the same compound, the “Biodistribution of ^188 Re-MAG3, s. intestine” value (“Biodistribution … s. intestine” for short) ([2]; 2 h) was 0.06 ± 0.04 % inj. dose/g tissue, the “Biodistribution … s. intestine” value ([2]; 6 h) was 0.01 ± 0.00 % inj. dose/g tissue and the “Biodistribution … s. intestine” value ([2]; 24 h) was 0.01 ± 0.00 % inj. dose/g tissue. The “Biodistribution of ^188 Re-MAG3, spleen” value ([2]; 2 h) was 0.03 ± 0.02 % inj. dose/g tissue, the “Biodistribution of ^188 Re-MAG3, spleen” value ([2]; 6 h) was 0.00 ± 0.01 % inj. dose/g tissue and the “Biodistribution of ^188 Re-MAG3, spleen” value ([2]; 24 h) was 0.02 ± 0.01 % inj. dose/g tissue. The “Biodistribution of ^188 Re-MAG3, thyroid” value ([2]; 2 h) was 0.70 ± 0.49 % inj. dose/g tissue, the “Biodistribution of ^188 Re-MAG3, thyroid” value ([2]; 6 h) was 0.76 ± 0.42 % inj. dose/g tissue and the “Biodistribution of ^188 Re-MAG3, thyroid” value ([2]; 24 h) was 0.74 ± 0.76 % inj. dose/g tissue. For the same compound, the “Stability, HPLC” value ([3]; 1 hour after EOS) was 92.0%, the “Stability, HPLC” value ([3]; 2 hours after EOS) was 91.1% and the “Stability, HPLC” value ([3]; 3 hours after EOS) was 90.3%. The “Stability, HPLC” value ([3]; 4 hours after EOS) was 88.3%, the “Stability, HPLC” value ([3]; 5 hours after EOS) was 100.8% and the “Stability, HPLC” value ([3]; 24 hours after EOS) was 92.4%. For the same compound, the “Stability, TLC” value ([3]; 24 hours after EOS) was 93.4%, the “Stability, TLC” value ([3]; End of Synthesis (EOS)) was 97.3% and the “Stability, HPLC” value ([3]; End of Synthesis (EOS), starting activity 1220 Mbq (33 mCi)) was 97.3%. The “Stability in presence of Hypaque, HPLC” value [4, 7] was greater than 90%, the “Stability in presence of Hypaque, TLC” value [4, 7] was 94.4% and the “Stability in presence of Hypaque, TLC” value ([4]; 50 min after mixing with Hypaque) was 90.5%. The “Stability in presence of Hypaque, HPLC” value [4, 8] was 86.6%, the “Stability in presence of Hypaque, TLC” value [4, 8] was 87.7% and the “Stability in presence of Hypaque, HPLC” value [4, 9] was 83.3%. The “Stability in presence of Hypaque, TLC” value [4, 9] was 83.3%, the “Stability in presence of Hypaque, HPLC” value [4, 10] was greater than 95% and the “Stability in presence of Hypaque, RP-Sep-Pak” value [4, 10] was 98.3%. The “Stability in presence of Hypaque, TLC” value [4, 10] was 97.6%, the “radioactive degradation product found” value ([4]; after mixing with Hypaque) was “free perrhenate” and the “stability by HPLC and ITLC” value [5] was “no decomposition or effects of radiolysis have been observed”. For the same compound, the “time until urinary counts excreted return to background” value [6] was “less than 12 hours”.
